According to PubChem BioAssay (NCI):
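Five concentrations, 48 hours, 96-well plates. GI50 = concentration required for 50% inhibition of growth. At the TGI there is no net growth.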

Assays:
Test in all cases: NCI anticancer screen, dose series, 48 h
HCT-15 colon = test system: HCT-15 colon
MDA-MB-231 breast = test system: MDA-MB-231 breast
SK-MEL-28 melanoma = test system: SK-MEL-28 melanoma
HS 578T breast = test system: HS 578T breast
SN12C renal = test system: SN12C renal
U251 CNS = test system: U251 CNS
T-47D breast = test system: T-47D breast
EKVX NSCLC = test system: EKVX NSCLC
UO-31 renal = test system: UO-31 renal
ACHN renal = test system: ACHN renal
CAKI-1 renal = test system: CAKI-1 renal
MDA-MB-435 = test system: MDA-MB-435
NCI/ADR-RES ovarian = test system: NCI/ADR-RES ovarian
RXF 393 renal = test system: RXF 393 renal
OVCAR-8 ovarian = test system: OVCAR-8 ovarian
HCT-116 colon = test system: HCT-116 colon
HOP-62 NSCLC = test system: HOP-62 NSCLC
BT-549 breast = test system: BT-549 breast
M14 melanoma = test system: M14 melanoma
SK-MEL-5 melanoma = test system: SK-MEL-5 melanoma
NCI-H23 lung = test system: NCI-H23 lung
NCI-H522 lung = test system: NCI-H522 lung
HT29 colon = test system: HT29 colon
SNB-75 CNS = test system: SNB-75 CNS
PC-3 prostate = test system: PC-3 prostate
K-562 leukemia = test system: K-562 leukemia
CCRF-CEM leukemia = test system: CCRF-CEM leukemia
NCI-H226 lung = test system: NCI-H226 lung
SK-OV-3 ovarian = test system: SK-OV-3 ovarian
HOP-92 NSCLC = test system: HOP-92 NSCLC
SF-268 CNS = test system: SF-268 CNS
IGROV1 ovarian = test system: IGROV1 ovarian
SF-295 CNS = test system: SF-295 CNS
UACC-257 melanoma = test system: UACC-257 melanoma
786-0 renal = test system: 786-0 renal
SR leukemia = test system: SR leukemia
A549 NSCLC = test system: A549 NSCLC
SW-620 colon = test system: SW-620 colon
UACC-62 melanoma = test system: UACC-62 melanoma
HL-60(TB) leukemia = test system: HL-60(TB) leukemia
SNB-19 CNS = test system: SNB-19 CNS
SK-MEL-2 melanoma = test system: SK-MEL-2 melanoma
COLO 205 colon = test system: COLO 205 colon
HCC-2998 colon = test system: HCC-2998 colon
MOLT-4 leukemia = test system: MOLT-4 leukemia
KM12 colon = test system: KM12 colon
SF-539 CNS = test system: SF-539 CNS
TK-10 renal = test system: TK-10 renal
LOX IMVI melanoma = test system: LOX IMVI melanoma
NCI-H460 lung = test system: NCI-H460 lung
OVCAR-3 ovarian = test system: OVCAR-3 ovarian
MCF7 breast = test system: MCF7 breast
DU-145 prostate = test system: DU-145 prostate
OVCAR-4 ovarian = test system: OVCAR-4 ovarian
RPMI-8226 leukemia = test system: RPMI-8226 leukemia
OVCAR-5 ovarian = test system: OVCAR-5 ovarian
A498 renal = test system: A498 renal

COc1ccc(/C=N/Nc2nc(N)nc(N3CCCC3)c2C#N)cc1
GI50 (HCT-15 colon): 17.2 µM
TGI (HCT-15 colon): 47.2 µM
GI50 (MDA-MB-231 breast): 12.2 µM
TGI (MDA-MB-231 breast): 32.9 µM
GI50 (SK-MEL-28 melanoma): 30.3 µM
TGI (SK-MEL-28 melanoma): 78.2 µM
GI50 (HS 578T breast): 13 µM
TGI (HS 578T breast): 34 µM
GI50 (SN12C renal): 18.6 µM
TGI (SN12C renal): 35.8 µM
GI50 (U251 CNS): 17.6 µM
TGI (U251 CNS): 45.2 µM
GI50 (T-47D breast): 31.2 µM
TGI (T-47D breast): 89.4 µM
GI50 (EKVX NSCLC): 25.9 µM
TGI (EKVX NSCLC): 60.3 µM
GI50 (UO-31 renal): 20.6 µM
TGI (UO-31 renal): 38.1 µM
GI50 (ACHN renal): 17.4 µM
TGI (ACHN renal): 34.5 µM
GI50 (CAKI-1 renal): 20.9 µM
TGI (CAKI-1 renal): 40.3 µM
GI50 (MDA-MB-435): 24.1 µM
TGI (MDA-MB-435): 64.6 µM
GI50 (NCI/ADR-RES ovarian): 14.1 µM
TGI (NCI/ADR-RES ovarian): 40.2 µM
GI50 (RXF 393 renal): 10.2 µM
TGI (RXF 393 renal): 31.1 µM
GI50 (OVCAR-8 ovarian): 7.82 µM
TGI (OVCAR-8 ovarian): 47.2 µM
GI50 (HCT-116 colon): 5.89 µM
TGI (HCT-116 colon): 22.5 µM
GI50 (HOP-62 NSCLC): 20.2 µM
TGI (HOP-62 NSCLC): 40.9 µM
GI50 (BT-549 breast): 19.1 µM
TGI (BT-549 breast): 46.3 µM
GI50 (M14 melanoma): 17 µM
TGI (M14 melanoma): 36.5 µM
GI50 (SK-MEL-5 melanoma): 19.3 µM
TGI (SK-MEL-5 melanoma): 39 µM
GI50 (NCI-H23 lung): 20.5 µM
TGI (NCI-H23 lung): 48.1 µM
GI50 (NCI-H522 lung): 21.9 µM
TGI (NCI-H522 lung): 47.7 µM
GI50 (HT29 colon): 34.7 µM
TGI (HT29 colon): > 100 µM
GI50 (SNB-75 CNS): 23.6 µM
TGI (SNB-75 CNS): 51.8 µM
GI50 (PC-3 prostate): 14.7 µM
TGI (PC-3 prostate): 32.2 µM
GI50 (K-562 leukemia): 13 µM
TGI (K-562 leukemia): 28.7 µM
GI50 (CCRF-CEM leukemia): 17.2 µM
TGI (CCRF-CEM leukemia): 49.2 µM
GI50 (NCI-H226 lung): 12.4 µM
TGI (NCI-H226 lung): 30.6 µM
GI50 (SK-OV-3 ovarian): 27.1 µM
TGI (SK-OV-3 ovarian): 73.3 µM
GI50 (HOP-92 NSCLC): 17.8 µM
TGI (HOP-92 NSCLC): 36.4 µM
GI50 (SF-268 CNS): 17.7 µM
TGI (SF-268 CNS): 42 µM
GI50 (IGROV1 ovarian): 21 µM
TGI (IGROV1 ovarian): 44.4 µM
GI50 (SF-295 CNS): 16.8 µM
TGI (SF-295 CNS): 36 µM
GI50 (UACC-257 melanoma): 21.6 µM
TGI (UACC-257 melanoma): 44.7 µM
GI50 (786-0 renal): 16.2 µM
TGI (786-0 renal): 31.2 µM
GI50 (SR leukemia): 7.72 µM
TGI (SR leukemia): 27.5 µM
GI50 (A549 NSCLC): 13.4 µM
TGI (A549 NSCLC): 50.8 µM
GI50 (SW-620 colon): 30.4 µM
TGI (SW-620 colon): > 100 µM
GI50 (UACC-62 melanoma): 18.9 µM
TGI (UACC-62 melanoma): 38.4 µM
GI50 (HL-60(TB) leukemia): 28.2 µM
TGI (HL-60(TB) leukemia): 86.6 µM
GI50 (SNB-19 CNS): 25.7 µM
TGI (SNB-19 CNS): 72.5 µM
GI50 (SK-MEL-2 melanoma): 21.4 µM
TGI (SK-MEL-2 melanoma): 46.1 µM
GI50 (COLO 205 colon): 37.1 µM
TGI (COLO 205 colon): > 100 µM
GI50 (HCC-2998 colon): 8.59 µM
TGI (HCC-2998 colon): 26.1 µM
GI50 (MOLT-4 leukemia): 17.8 µM
TGI (MOLT-4 leukemia): 58.9 µM
GI50 (KM12 colon): 24.8 µM
TGI (KM12 colon): 70.8 µM
GI50 (SF-539 CNS): 6.5 µM
TGI (SF-539 CNS): 21.8 µM
GI50 (TK-10 renal): 19.4 µM
TGI (TK-10 renal): 39.9 µM
GI50 (LOX IMVI melanoma): 7.39 µM
TGI (LOX IMVI melanoma): > 100 µM
GI50 (NCI-H460 lung): 16.4 µM
TGI (NCI-H460 lung): 46.7 µM
GI50 (OVCAR-3 ovarian): 21.5 µM
TGI (OVCAR-3 ovarian): 40.2 µM
GI50 (MCF7 breast): 15.3 µM
TGI (MCF7 breast): 47.8 µM
GI50 (DU-145 prostate): 11.8 µM
TGI (DU-145 prostate): 32 µM
GI50 (OVCAR-4 ovarian): 23.3 µM
TGI (OVCAR-4 ovarian): 47.4 µM
GI50 (RPMI-8226 leukemia): 14.1 µM
TGI (RPMI-8226 leukemia): 39 µM
GI50 (OVCAR-5 ovarian): 24.3 µM
TGI (OVCAR-5 ovarian): 47 µM
GI50 (A498 renal): 12.9 µM
TGI (A498 renal): 28.1 µM
